These results are taken from patent publication US9572911B2, “Method for decellularization of tissue grafts” (University of Florida Research Foundation, Inc., priority 2013, dated 2017).

In this experiment the target is purified laminin-1 (Homo sapiens, UniProt P07942+P11047+P25391). Nature of the experiment: Effects of individual detergents on the neurite-promoting activity of purified laminin. The experiment is classed as cell-based. The note with it: dialyzed, neurons 24 hours, FIG. 14. The protocol: FIG. 14. Effects of individual detergents on the neurite-promoting activity of purified laminin. Purified laminin-1 was mixed with individual detergents as follows: Control (buffer alone), sulfobetaine-10 (125 mM), sulfobetaine-16 (0.6 mM) and […] (0.14%). The mixtures were extensively dialyzed and then were added to tissue culture wells to form a substratum onto which dissociated neurons were seeded. After 24 hours in culture the length of neurites were measured. Data represent the specific activities (ED50) calculated from mean scores from dilution series performed in duplicates in 4 separate experiments
The extracellular matrix of nerve is known to promote the growth of axons. In particular, the basal lamina tubes encasing axons provides a potent stimulus for axonal growth in nerve regeneration. The cryoculture assay used in the experiments described above relies on the structure and growth-promoting activity of the basal lamina. It is well documented that laminin is the major neurite-promoting component of the nerve basal lamina. […] Therefore, tests were performed to examine the effects of individual detergents on purified laminin. Laminin activity was unchanged by SB-10. Exposure to SB-16 reduced laminin activity approximately 50%.

Turning to `CCCCCCCCCC[N+](C)(C)CCCS(=O)(=O)[O-]` [SB-10, sulfobetaine-10], the “laminin neurite-promoting activity after exposure to detergent” value (SB-10 125 mM, SB-16 0.6 mM, Triton X-200 0.14%) is listed as “unchanged”.

In the case of `CCCCCCCCCCCCCCCC[N+](C)(C)CCCS(=O)(=O)[O-]` [SB-16, sulfobetaine-16], the “reduction of laminin activity” value (sulfobetaine-16 0.6 mM) is “approximately 50%”.
